We go through 7 compounds from ChEMBL document CHEMBL1201862, “PubChem BioAssay data set” (2004).

The structures appear in SMILES notation.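 Compound exposure: 48 hours, 5 concentrations, 96-well plates. Here, GI50 denotes the concentration required for 50% inhibition of growth.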 The source made the active and inactive calls. Rule as the data show it: active = GI50 up to about 1.1 µM and inactive = higher. Bounds are passed on as bounds.

Among the test systems are ACHN; BT-549; CAKI-1; CCRF-CEM; HCC 2998; HCT-116; IGROV-1; LOX IMVI; MCF7; MDA-MB-435; Malme-3M; NCI-H23; OVCAR-5; OVCAR-8; RXF 393; SK-MEL-28; SK-MEL-2; SN12C; SNB-75; UO-31.
What all share (test): inhibition of tumour cell growth, NCI panel, 48 h

`CN1CCN(CCCCNc2cc3c4ccccc4c(NCCCCN4CCN(C)CC4)cc3c3ccccc23)CC1`: the GI50 with ACHN was 4.06 µM (inactive); in the assay with BT-549 it was 5.89 µM (inactive); in the assay on CAKI-1, 9.77 µM (inactive); in the assay with CCRF-CEM, 0.703 µM (active); with HCC 2998, 1.81 µM (inactive); with HCT-116, 0.604 µM (active). For the same compound, the GI50 with IGROV-1 is 1.93 µM (inactive); in the assay with LOX IMVI it was 0.962 µM (active); in the assay with MCF7 it was 1.34 µM (inactive); with MDA-MB-435 it was 0.184 µM (active); with Malme-3M, 2.15 µM (inactive); in the assay on NCI-H23 it was 2.09 µM (inactive). Besides, the GI50 in the assay on OVCAR-5 was 5.56 µM (inactive); with OVCAR-8, 1.88 µM (inactive); in the assay on RXF 393 it was 1.41 µM (inactive); in the assay on SK-MEL-28, 7.67 µM (inactive); in the assay on SK-MEL-2, 5.05 µM (inactive); in the assay on SN12C it was 2.61 µM (inactive). The GI50 in the assay with SNB-75 was 3.38 µM (inactive); in the assay with UO-31, 2.69 µM (inactive).

Turning to `CCCC(=O)OC(OC(=O)CCC)c1ccc([N+](=O)[O-])o1`, the GI50 in the assay with ACHN was 20.5 µM (inactive); in the assay on BT-549, 47.2 µM (inactive); in the assay with CAKI-1 it was 17.7 µM (inactive); with CCRF-CEM, 28.2 µM (inactive); in the assay with HCC 2998 it was 15.9 µM (inactive); in the assay on HCT-116, 16.9 µM (inactive). The GI50 with IGROV-1 was 14.8 µM (inactive); with LOX IMVI it was 21.7 µM (inactive); in the assay on MCF7 it was 16.9 µM (inactive); with MDA-MB-435, 20.7 µM (inactive); in the assay on Malme-3M, 19.2 µM (inactive); in the assay with NCI-H23, 22.1 µM (inactive). The GI50 is 21.8 µM (inactive) in the assay with OVCAR-5; 32.2 µM (inactive) in the assay with OVCAR-8; 17.2 µM (inactive) with RXF 393; 20.4 µM (inactive) in the assay with SK-MEL-28; 22.8 µM (inactive) with SK-MEL-2; 17.3 µM (inactive) with SN12C. Moreover, the GI50 in the assay on SNB-75 was > 100 µM (inactive); in the assay on UO-31, 21.1 µM (inactive).

On to `CC1=C(C(=O)OCCc2ccc([N+](=O)[O-])cc2)C(c2ccccc2[N+](=O)[O-])C(C(=O)OC(C)C)=C(C)N1` (stereo not given), for which the GI50 was 3.4 µM (inactive) with ACHN; 2.4 µM (inactive) in the assay with BT-549; 3.4 µM (inactive) in the assay with CAKI-1; 2.36 µM (inactive) in the assay with CCRF-CEM; 7.43 µM (inactive) in the assay on HCC 2998; 2.75 µM (inactive) in the assay with HCT-116. In addition, the GI50 is 7.05 µM (inactive) in the assay on IGROV-1; 4.14 µM (inactive) in the assay on LOX IMVI; 3.78 µM (inactive) in the assay with MCF7; 5 µM (inactive) with MDA-MB-435; 7.19 µM (inactive) with Malme-3M; 3.97 µM (inactive) in the assay on NCI-H23. For the same compound, the GI50 in the assay with OVCAR-5 is 31.1 µM (inactive); in the assay on OVCAR-8 it was 3.66 µM (inactive); in the assay on RXF 393 it was 3.22 µM (inactive); with SK-MEL-28, 7.57 µM (inactive); in the assay with SK-MEL-2, 3.86 µM (inactive); in the assay with SN12C it was 6.87 µM (inactive). The GI50 in the assay on SNB-75 was 4.24 µM (inactive); in the assay with UO-31, 4.2 µM (inactive).

As to `O=c1oc2ccc([N+](=O)[O-])cc2c(Nc2ccc3c(c2)Sc2ccccc2O3)c1[N+](=O)[O-]`, the GI50 with ACHN is 27 µM (inactive); in the assay on BT-549, 24 µM (inactive); with CAKI-1, 22.3 µM (inactive); with CCRF-CEM, 18.9 µM (inactive); in the assay with HCC 2998, 13.6 µM (inactive); with HCT-116, 15.8 µM (inactive). Further, the GI50 was 21.6 µM (inactive) in the assay with IGROV-1; 20 µM (inactive) in the assay on LOX IMVI; 22.1 µM (inactive) in the assay on MCF7; 30.8 µM (inactive) in the assay on MDA-MB-435; 30.7 µM (inactive) in the assay on Malme-3M; 18.6 µM (inactive) with NCI-H23. In addition, the GI50 with OVCAR-5 is 22.1 µM (inactive); in the assay on OVCAR-8, 25.3 µM (inactive); in the assay on RXF 393, 22.4 µM (inactive); in the assay on SK-MEL-28 it was 25.9 µM (inactive); with SK-MEL-2, 20.4 µM (inactive); in the assay on SN12C, 20 µM (inactive). The GI50 in the assay on SNB-75 was 39.6 µM (inactive); with UO-31 it was 22.6 µM (inactive).

With `Cc1cccc(C)c1NC(=O)C(C#N)C1=C(Cl)C(=O)c2ccccc2C1=O` (stereo not given), the GI50 is 15.2 µM (inactive) in the assay on ACHN; 14.6 µM (inactive) with BT-549; 18.5 µM (inactive) with CAKI-1; 1.62 µM (inactive) with CCRF-CEM; 17.8 µM (inactive) with HCC 2998; 15.4 µM (inactive) in the assay on HCT-116. Also, the GI50 in the assay with IGROV-1 was 17 µM (inactive); in the assay with LOX IMVI, 9.33 µM (inactive); with MCF7 it was 20 µM (inactive); with MDA-MB-435 it was 17.2 µM (inactive); in the assay on Malme-3M it was 15.2 µM (inactive); in the assay with NCI-H23, 18.7 µM (inactive). The GI50 with OVCAR-5 was 19.3 µM (inactive); in the assay with OVCAR-8, 16.9 µM (inactive); in the assay with RXF 393 it was > 32.8 µM (inactive); in the assay on SK-MEL-28, 20.2 µM (inactive); with SK-MEL-2, 14.4 µM (inactive); with SN12C it was 17.4 µM (inactive). Further, the GI50 is 15.7 µM (inactive) with SNB-75 and 13.6 µM (inactive) in the assay with UO-31.

With `O=[N+]([O-])C(/C=C(\Cl)[N+](=O)[O-])=C(Nc1ccccc1)Nc1ccccc1`, the GI50 was 13.2 µM (inactive) in the assay with ACHN; 7.24 µM (inactive) in the assay on BT-549; 13.7 µM (inactive) in the assay on CAKI-1; 1.44 µM (inactive) in the assay on CCRF-CEM; 21.4 µM (inactive) in the assay on HCC 2998; 1.98 µM (inactive) with HCT-116. The GI50 in the assay with IGROV-1 is 17.2 µM (inactive); in the assay on LOX IMVI, 16 µM (inactive); in the assay on MCF7, 0.843 µM (active); with MDA-MB-435, 5 µM (inactive); with Malme-3M, 8.67 µM (inactive); with NCI-H23, 7.96 µM (inactive). In addition, the GI50 with OVCAR-5 is 5.36 µM (inactive); in the assay on OVCAR-8, 8.41 µM (inactive); in the assay with RXF 393, 4.65 µM (inactive); in the assay with SK-MEL-28 it was 9.86 µM (inactive); in the assay on SK-MEL-2, 16.4 µM (inactive); in the assay on SN12C, 15.5 µM (inactive). Moreover, the GI50 was 1.26 µM (inactive) with SNB-75 and 12.1 µM (inactive) with UO-31.

Take `CCOC(=O)C1=C(C)NC(C)=C(C(=O)OCCNC(=O)c2ccc(N=[N+]=[N-])cc2)C1c1ccccc1C(F)(F)F` (stereo not given) [AZIDOPINE]: the GI50 with ACHN is 7.64 µM (inactive); in the assay with BT-549 it was 13.9 µM (inactive); in the assay on CAKI-1, 12.4 µM (inactive); with CCRF-CEM, 6.55 µM (inactive); in the assay with HCC 2998, 13.2 µM (inactive); in the assay on HCT-116, 9.73 µM (inactive). Moreover, the GI50 in the assay with IGROV-1 was 18.7 µM (inactive); in the assay on LOX IMVI, 10.7 µM (inactive); with MCF7, 6.43 µM (inactive); in the assay with MDA-MB-435 it was 9.27 µM (inactive); in the assay with Malme-3M, 14 µM (inactive); with NCI-H23, 11.3 µM (inactive). The GI50 was 19.9 µM (inactive) with OVCAR-5; 14.8 µM (inactive) in the assay with OVCAR-8; 9.57 µM (inactive) with RXF 393; 13.4 µM (inactive) with SK-MEL-28; 6.53 µM (inactive) in the assay on SK-MEL-2; 15.1 µM (inactive) with SN12C. Also, the GI50 was > 10 µM (inactive) in the assay on SNB-75 and 4.79 µM (inactive) with UO-31.
